Data from patent US7378387B2, “Method of suppressing immune response by reducing intracellular content of glutathione in macrophages and monocytes” (Ajinomoto Co., Inc., priority 1997, dated 2008).

What was measured:
Type in all cases: in vivo
[1] = system: spontaneous inflammatory bowel disease; assay: Spontaneous inflammatory bowel disease in γc knock out mice (Example 13); conditions: −/Y mice, 20 μg/h twice a week, 5 times in total; for survival rate, Day 31 / survival rate, Day 45: non-administration 33%; for occurrence rate of intestinal inflammation, Day 14 / occurrence rate of intestinal inflammation, Day 31: non-administration 83%; for occurrence rate of intestinal inflammation, Day 45: non-administration 100%
Excerpt: In wild-type normal littermates of γc knock out mice (genetic phenotypes +/+, +/Y), no inflammatory bowel disease is observed at all under ordinary SPF breeding conditions. However, in γc knock out mice (genetic phenotypes, −/−, −/+ and −/Y), inflammatory bowel diseases occur very of ten. With respect to homo-knock out mice with −/− and −/Y phenotypes, approximately 70% thereof are spontaneously accompanied with inflammatory bowel diseases within 4 months. Also with respect to mice with +/− phenotype, approximately 60% thereof are spontaneously accompanied therewith within 6 months. That is, intestinal shortening, bloody stool, diarrhea, loose passage, anal prolapse and colonal hypertrophy are observed.
On the basis of the findings mentioned above, the effect of inhibiting spontaneous progression of inflammatory bowel disease in γc knock out mice was examined with respect to human Crohn disease and ulcerative colitis models. Saline, (NAC-OMe)2 or (NAC)2 (20 μg/h) was administered twice a week, 5 times in total, to each of 6 γc knock out male mice with […] and 6 γc knock out male mice with −/Y genotype which were inclined to have oxidative MΦ. It was examined whether or not the intestinal inflammation spontaneously progressed in −/Y was inhibited. In case of (NAC-OMe)2, on Day 14 of the administration, the occurrence rate of the non-administration −/Y group and the administration −/Y group was 83% to 25%; on Day 31, the occurrence rate was 83% to 25%, and the survival rate was 33% to 100%; and on Day 45, the occurrence rate was 100% to 25%, and the survival rate was 33% to 75%. In case of (NAC)2, it was 30, 40, 100, 40, 75% respectively.

[2] = system: insulin-non-dependent diabetes mellitus; assay: Blood sugar level in db/db mice (Example 26); conditions: intraperitoneal, age 4 to 9 weeks, three times per week; at satiation; saline 100
Excerpt: db/db mice purchased from Nippon Clair, Co. were naturally mated together. Among the off spring mice, a colony of db/db mice with a high frequency of the spontaneous onset of insulin-non-dependent diabetes mellitus was established. Male db/db mice from the colony were used for the present experiment. Chemical agents were intraperitoneally administered to the db/db mice aged 4 to 9 weeks three times per week, in total 18 times; and based on the level of blood sugar in the mice at satiation, the effects of the chemical agents on the improvement of the diseased conditions of insulin-non-dependent diabetes mellitus were followed once per week. The doses were the same as in Example 24.

[3] = system: reductive glutathione in MΦ; assay: GSH content in MΦ of JaK3 knock out mice by ACAS after free intake in city water (Example 6); conditions: free intake of city water containing 1 mg/ml, 24 days
Description: Three-hundred microliters of a cell suspension adjusted concentration of 3×10^5 cells/ml in an RPMI 1640 medium (phenol red-free) were charged into a chambered coverglass (#136439, supplied by Nunc), and incubated at 37° C. for 2 hours using a CO2 incubator. The culture solution was washed with the medium, and 300 μl of monochlorobimane (supplied by Molecular Plobe) adjusted to 10 μM in the same medium were added thereto. The mixture was charged into a CO2 incubator of 37° C., and the reaction was conducted for 30 minutes. The fluorescent intensity was measured with ACAS. In ACAS, a UV laser was used.
Macrophages (MΦ) were prepared from knock out mice deficient in a molecule participating in a signal transduction system from a receptor, and the function of the redox system was analyzed. […] Methods applied in Example 2 was repeated. JaK3 knock out mice were divided into three groups. A control group was a group of usual city water free-intake. An NAC group was a group of free intake of city water containing 1 mg/ml of NAC. A GSH-OEt group was a group of free intake of city water containing 1 mg/ml of GSH-OEt. […]
Peritoneal cells of knock out mice which had undergone the respective treatments were harvested, and the GSH content in the cells was analyzed using ACAS with MCB. […]

IL-6 = IL-6 production of MΦ from JaK3 knock out mice (Example 6); conditions: LPS stimulation; 1 mg/ml in city water, 24 days; control knock out mice 962 pg/ml
Description: A stimulator was added to 1×10^6 MΦ, and the incubation was conducted at 37° C. for 2 days in a CO2 incubator. After centrifugation, the culture supernatant was collected.
The amount of IL-6 was determined using IL-6 dependent mouse hybridoma MH60 cells (J. Eur. Immunol., vol. 18, p. 951, 1988). One hundred microliters of the culture supernatant were added to 100 μl of the MH60 cell suspension adjusted to 1×10^5 cells/ml in a 10% FCS-containing RPMI medium, and the mixed solution was incubated at 37° C. for 2 days in a CO2 incubator. […] Immediately after the dissolution, an absorbance of 570 nm was measured with an immunometer (supplied by Bio-Rad).
Macrophages (MΦ) were prepared from knock out mice deficient in a molecule participating in a signal transduction system from a receptor, and the function of the redox system was analyzed. […]
Peritoneal cells were harvested from three groups of knock out mice, and stimulated with LPS, IL-2, IFNγ and a combination thereof. The NO production, the IL-6 production and the IL-12 production were measured. […] Then, the IL-6 production was analyzed. In LPS stimulation, the amount was detected as 962 pg/ml in the knock out mice derived MΦ culture, 122 pg/ml in the NAC group, and 82 pg/ml in the GSH-OEt group. […]

Structure (SMILES) | survival rate, Day 31 [1] | survival rate, Day 45 [1] | occurrence rate of intestinal inflammation, Day 14 [1] | occurrence rate of intestinal inflammation, Day 31 [1] | occurrence rate of intestinal inflammation, Day 45 [1] | Relative ratio % of blood sugar level, 6 weeks [2] | Relative ratio % of blood sugar level, 7 weeks [2] | Relative ratio % of blood sugar level, 8 weeks [2] | content of reductive glutathione in MΦ in comparison with control mice [3] | IL-6 production (IL-6)
COC(=O)[C@H](CSSC[C@H](NC(C)=O)C(=O)OC)NC(C)=O [(NAC-OMe)2, N,N′-diacetylcystine dimethyl ester] | 100% | 75% | 25% | 25% | 25% | 94% | 92% | 93% |  | 
CC(=O)N[C@@H](CSSC[C@H](NC(C)=O)C(=O)O)C(=O)O [(NAC)2, N,N′-diacetylcystine] | 100% | 75% | 30% | 40% | 40% | 95% | 100% | 98% |  | 
CC(=O)N[C@@H](CS)C(=O)O [NAC, N-acetylcysteine, reference compound] |  |  |  |  |  |  |  |  | markedly increased | 122 pg/mL
CCOC(=O)CNC(=O)[C@H](CS)NC(=O)CC[C@H](N)C(=O)O [GSH-OEt, glutathione monoethyl ester] |  |  |  |  |  |  |  |  | markedly increased | 82 pg/mL
